Source: patent US20250057928A1, “VACCINE COMPOSITION FOR INDUCING ANTI-IL-23 ANTIBODY” (OSAKA UNIVERSITY, priority 2021, published 2025)
Where no end group is shown, it is not given here.

Legend:
[1] = test system: hairless rats; test: Psoriasis model, 2% imiquimod (IMQ) applied to auricle of hairless rats; type: in vivo, rat; conditions: 1 mg/body 3 times
Description: AJP001 conjugated peptide (SEQ ID NO: 2) was dissolved in physiological saline and intradermally administered to hairless rats (female, 6-week-old, N=6) at 1 mg/body 3 times at two-week intervals. From 6 weeks after the initial administration, 2% imiquimod (IMQ) was intermittently applied to the auricle 4 times in total at 1-day intervals to create a psoriasis model. A 2% IMQ application group was provided as a control group. The drug efficacy was evaluated by measuring the thickness of the auricle with a thickness gauge (Mitutoyo Corporation) from the first day of IMQ application to the eighth day. Furthermore, on the 8th day, histopathological evaluation of the auricular tissue was performed. Specifically, the collected auricle was fixed with 10% neutral formalin, and then a specimen was prepared according to a conventional method and stained with HE. HE-stained specimens were observed under a microscope, and inflammatory cell infiltration, edema, and thickness were scored in 4 stages (0: normal, 1: mild, 2: intermediate, 3: severe) and the total score was calculated. Furthermore, the antibody titer (GMT) of the serum at the time point of 6 weeks was measured by the ELISA method (same method as in Example 1. Anti-Rat IgG (GE Healthcare) was used as the secondary antibody). […]

[2] = test system: recombinant human IL-23 protein (rhIL-23); test: Binding of mouse antiserum to rhIL-23, ELISA; conditions: antiserum of BALB/c mice, 1 mg/body 3 times, no adjuvant; 6 weeks
Description: AJP001 conjugated peptide (SEQ ID NOs: 6-37) was dissolved in physiological saline, mixed with an equal amount of 2% Alhydrogel (invivogen), and this was intradermally administered to BALB/c mice (female, 6-week-old, N=5-6) at 0.5 mg/body 3 times at two-week intervals. Blood was collected before administration and at the time point of 6 weeks after initial administration, and the antibody titer (GMT) to each epitope sequence and binding ability to recombinant human IL-23 protein (rhIL-23) (Peprotech) were measured by the ELISA method (same method as in Example 1). The binding to rhIL-23 was evaluated by a binding ratio to normal serum by calculating the ratio of the absorbance of a well added with normal mouse serum to the absorbance of a well added with antiserum derived from a mouse administered with each AJP001 conjugated peptide (SEQ ID NOs: 6-37). In addition, the neutralization activity of mouse antiserum was evaluated using an action on IL-17 production in rhIL-23 stimulated mouse splenocyte as an index. The spleen of normal BALB/c mouse (female, 5-week-old, N=3) was triturated using a syringe barrel and a cell strainer and washed with and suspended in HBSS (−). Erythrocytes were then removed using ACK Buffer (Thermo fisher scientific), and splenocytes were isolated. The splenocytes were prepared to 2.5×10^6 cells/mL with 10% FBS/1% penicillin/streptomycin/4 ng/mL rmIL-2-containing RPMI1640 medium (culture medium), and seeded in a 96 well plate at 100 μl/well. The antiserum (final concentration 15-fold) of the mice administered with each AJP001 conjugated peptide and rhIL-23 (final concentration 10 ng/ml) were added to the culture medium, reacted at 37° C. for 2 hr, added at 100 μL/well to a 96-well plate seeded with splenocytes, and cultured for 3 days in a 37° C./5% CO2 incubator. An untreated well and a control well to which normal mouse serum and rhIL-23 were added were provided. IL-17A/F in the culture supernatant was measured using Mouse IL-17A/F ELISA kit (R&D systems), the proportion (%) of IL-17 to normal serum was calculated from the IL-17 concentrations of untreated well (A), control well (B), and well (C) to which antiserum of the mice administered with each AJP001 conjugated peptide was added and according to the following formula, and the neutralization activity was evaluated.
AJP001 conjugated peptide (SEQ ID NO: 6) was dissolved in physiological saline and intradermally administered to BALB/c mice (female, 6-week-old, N=6) at 1 mg/body 3 times at two-week intervals, and blood was collected every 2 weeks until 8 weeks. The antibody titer (GMT) of all the collected sera and the binding ability to rhIL-23 of the serum at 6 weeks were measured by the ELISA method. In FIG. 5, “*” means P<0.05.

[3] = test system: epitope peptide; test: Antibody titer (GMT) of serum of Macaca fascicularis, ELISA; type: in vivo; conditions: 5 mg/body subcutaneous 3 times at two-week intervals, blood every two weeks until week 16
Description: AJP001 conjugated peptide having one of the B cell epitope sequences of SEQ ID NOs: 1-5 was dissolved in physiological saline and intradermally administered twice to BALB/c mice (female, 6-week-old, N=5-6) at 0.5 mg/body at 2-week intervals. Blood was collected before administration and 5 weeks after the initial administration, and the antibody titer against each AJP001 conjugated peptide and the binding ability to recombinant mouse IL-23 protein (rmIL-23) were measured by the ELISA method. […] After washing the wells with PBS-T, TMB solution (SIGMA) was added, the wells were allowed to stand for 30 min in the dark, the reaction was stopped by adding 0.5M H2SO4, and the absorbance at 450 nm was measured using a plate reader. The serum dilution rate that gave 1/2 (OD=1.75) of the maximum absorbance was defined as the antibody titer, and the geometric mean titer: GMT was calculated from the individual values. Binding to IL-23 protein was measured by the ELISA method in the same manner as the antibody titer, using rmIL-23 (Antibodies-online GmbH) as the solid-phased antigen and goat serum for blocking. […] Blood was collected every two weeks from the first day of administration until week 16, and the antibody titer (GMT) and binding to IL-23 of the serum at each time point were measured by the ELISA method (same method as in Example 1; the secondary antibody used was Anti-Monkey IgG (Abcam)). […]

binding ability to rhIL-23 [2]	Substance	increase in auricular thickness ([1]; 2% IMQ 4 times from week 6, day 1 to 8)	inflammatory changes of tissue (auricle, HE score) ([1]; 2% IMQ, day 8)	antibody titer (GMT) over time [3]
–	SEQ ID NO 2: AJP001-Ahx-B cell epitope peptide conjugate; epitope SSSQQWQR (mouse 152-159) (not fully specified (N-terminus); listed as Mus musculus)	suppressive action	suppressive action	–
confirmed	SEQ ID NO 6: AJP001-Ahx-B cell epitope peptide conjugate; epitope SPSQPWQR (human 151-158) (not fully specified (N-terminus); listed as Homo sapiens)	–	–	increased from 2 weeks after the initial administration and persisted until 16 weeks
